Results: PubChem BioAssay AID330 (DTP/NCI, 2004)
Where “and” joins values, the source holds several entries; their conditions need not be identical. Identical values can stand only once. Inconclusive results and toxic doses are left out. The calls were made as follows: active = survival T/C of 150% or more; inactive = T/C below 125% in these data.

Test system: P388 leukemia ip, CD2F1 mice, survival T/C
Assay: NCI In Vivo Anticancer Drug Screen. Data for tumor model P388 Leukemia (intraperitoneal) in CD2F1 (CDF1) mice
Conditions: endpoint: median survival time, higher = longer survival
Outline: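 Mice carrying the transplanted tumor received test compound or vehicle. Survival was recorded in each group, and the value is the treated-group measurement divided by that of the vehicle-treated control group.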

[1] = dose: 50.0 mg/kg/injection, schedule: Q01DX009 (ip), vehicle: saline with Tween-80
[2] = dose: 100.0 mg/kg/injection, schedule: Q01DX009 (ip), vehicle: saline with Tween-80
[3] = dose: 50.0 mg/kg/injection, schedule: Q01DX005 (ip), vehicle: Klucel (hydroxypropylcellulose) (HPC)
[4] = dose: 100.0 mg/kg/injection, schedule: Q01DX005 (ip), vehicle: Klucel (hydroxypropylcellulose) (HPC)
[5] = dose: 200.0 mg/kg/injection, schedule: Q01DX005 (ip), vehicle: Klucel (hydroxypropylcellulose) (HPC)

Measured: T/C

CCOC(=O)c1cnc[nH]c1=O
inactive: dose: 25.0 mg/kg/injection, schedule: Q04DX003 (ip), vehicle: saline with Tween-80 99 % of control | dose: 50.0 mg/kg/injection, schedule: Q04DX003 (ip), vehicle: saline with Tween-80 100 % of control | dose: 100.0 mg/kg/injection, schedule: Q04DX003 (ip), vehicle: saline with Tween-80 97 % of control | dose: 200.0 mg/kg/injection, schedule: Q04DX003 (ip), vehicle: saline with Tween-80 97 % of control

CCOC(=O)CCCC(=O)Cl
inactive: [1] 94 % of control | [2] 99 % of control | dose: 200.0 mg/kg/injection, schedule: Q01DX009 (ip), vehicle: saline with Tween-80 96 % of control

CC(=O)Oc1cccnc1
inactive: dose: 50.0 mg/kg/injection, schedule: Q01DX006 (ip), vehicle: saline 106 % of control | dose: 50.0 mg/kg/injection, schedule: Q01DX009 (ip), vehicle: saline 100 % of control | dose: 100.0 mg/kg/injection, schedule: Q01DX006 (ip), vehicle: saline 100 % of control | dose: 100.0 mg/kg/injection, schedule: Q01DX009 (ip), vehicle: saline 96 % of control | dose: 200.0 mg/kg/injection, schedule: Q01DX006 (ip), vehicle: saline 100 % of control | dose: 200.0 mg/kg/injection, schedule: Q01DX009 (ip), vehicle: saline 95 % of control | dose: 400.0 mg/kg/injection, schedule: Q01DX006 (ip), vehicle: saline 100 % of control | dose: 400.0 mg/kg/injection, schedule: Q01DX009 (ip), vehicle: saline 95 % of control | dose: 600.0 mg/kg/injection, schedule: Q01DX006 (ip), vehicle: saline 100 % of control | dose: 600.0 mg/kg/injection, schedule: Q01DX009 (ip), vehicle: saline 94 % of control | dose: 800.0 mg/kg/injection, schedule: Q01DX006 (ip), vehicle: saline 99 % of control | dose: 800.0 mg/kg/injection, schedule: Q01DX009 (ip), vehicle: saline 95 % of control

O=c1c(Br)cc(CN2CCOCC2)cc(CN2CCOCC2)c1O
inactive: [1] 112 % of control | [2] 116 % of control

CCOC(=O)C1=C(C(=O)c2ccc(OC)cc2)C(c2ccc(Cl)cc2Cl)C(C(=O)c2ccc(OC)cc2)=C(C(=O)OCC)N1
inactive: dose: 30.0 mg/kg/injection, schedule: Q01DX005 (ip), vehicle: saline with Tween-80 96 % of control | dose: 60.0 mg/kg/injection, schedule: Q01DX005 (ip), vehicle: saline with Tween-80 91 % of control and 94 % of control | dose: 120.0 mg/kg/injection, schedule: Q01DX005 (ip), vehicle: saline with Tween-80 101 % of control | dose: 240.0 mg/kg/injection, schedule: Q01DX005 (ip), vehicle: saline with Tween-80 92 % of control

O=c1[nH]c(=O)n(C2OC(CO)C(O)C2O)c(NNc2ccccc2)c1NNc1ccccc1 (stereo not given)
inactive: dose: 50.0 mg/kg/injection, schedule: Q01DX005 (ip), vehicle: saline with Tween-80 97 % of control | dose: 100.0 mg/kg/injection, schedule: Q01DX005 (ip), vehicle: saline with Tween-80 111 % of control | dose: 200.0 mg/kg/injection, schedule: Q01DX005 (ip), vehicle: saline with Tween-80 117 % of control

COC1(OC)C(=S)N(C2CCCCC2)C(=S)N1C1CCCCC1
inactive: [3] 95 % of control | [4] 95 % of control | [5] 96 % of control

CNNC(=O)C(=O)n1ccnc1
inactive: dose: 50.0 mg/kg/injection, schedule: Q01DX005 (ip), vehicle: saline 104 % of control | dose: 100.0 mg/kg/injection, schedule: Q01DX005 (ip), vehicle: saline 103 % of control | dose: 200.0 mg/kg/injection, schedule: Q01DX005 (ip), vehicle: saline 101 % of control

O=C(Nc1c2ccccc2nc2ccccc12)c1ccc([N+](=O)[O-])cc1
inactive: [3] 94 % of control | [4] 94 % of control | [5] 100 % of control

Cn1c(N)c(C(=O)Nc2ccccc2)c(=O)n(C)c1=O
inactive: dose: 100.0 mg/kg/injection, schedule: Q01DX001 (ip), vehicle: Klucel (hydroxypropylcellulose) (HPC) 87 % of control | dose: 200.0 mg/kg/injection, schedule: Q01DX001 (ip), vehicle: Klucel (hydroxypropylcellulose) (HPC) 88 % of control

COc1c(I)c2c(c(OC)c1OC)-c1ccc(OC)c(=O)cc1C(NC(C)=O)CC2 (stereo not given)
active: dose: 6.25 mg/kg/injection, schedule: Q01DX009 (ip), vehicle: Klucel (hydroxypropylcellulose) (HPC) 178 % of control | dose: 12.5 mg/kg/injection, schedule: Q01DX009 (ip), vehicle: Klucel (hydroxypropylcellulose) (HPC) 167 % of control

CC1CC12C(=O)C1=C(C(=O)C2O)C2(C)CCCC(C)(COC=O)C2C(O)C1OC=O (stereo not given)
inactive: dose: 6.25 mg/kg/injection, schedule: Q01DX005 (ip), vehicle: Klucel (hydroxypropylcellulose) (HPC) 105 % of control | dose: 12.5 mg/kg/injection, schedule: Q01DX005 (ip), vehicle: Klucel (hydroxypropylcellulose) (HPC) 105 % of control | dose: 25.0 mg/kg/injection, schedule: Q01DX005 (ip), vehicle: Klucel (hydroxypropylcellulose) (HPC) 115 % of control | [3] 101 % of control
